Source: ChEMBL document CHEMBL1201862, “PubChem BioAssay data set” (2004)
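All cell lines were grown in 96-well plates and treated with compound for 48 hours. The concentration for 50% growth inhibition is given as GI50.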 The source made the active and inactive calls. Cut-off read from the data, not from the text of the source: active = GI50 up to about 1.1 µM and inactive = higher.

Tests used:
Experiment in all cases: NCI tumour cell line growth inhibition, 48 h
SK-MEL-28 = system: SK-MEL-28
OVCAR-3 = system: OVCAR-3
HL-60 = system: HL-60
IGROV-1 = system: IGROV-1
M14 = system: M14
NCI-H23 = system: NCI-H23
NCI-H460 = system: NCI-H460
SF-268 = system: SF-268
CCRF-CEM = system: CCRF-CEM
HCC 2998 = system: HCC 2998
LOX IMVI = system: LOX IMVI
SN12C = system: SN12C
SK-MEL-2 = system: SK-MEL-2
HOP-62 = system: HOP-62
HOP-92 = system: HOP-92
A498 = system: A498
SK-MEL-5 = system: SK-MEL-5

Measured: GI50

OCC(O)C(O)C(O)c1nn(-c2ccc(F)cc2)c2nc3cc(Cl)c(Cl)cc3nc12 (stereo unspecified)
inactive: SK-MEL-28 16.8 µM | OVCAR-3 21.8 µM | HL-60 > 100 µM | IGROV-1 21.9 µM | M14 18.2 µM | NCI-H23 18.5 µM | NCI-H460 25.5 µM | SF-268 16.9 µM | CCRF-CEM 14.9 µM | HCC 2998 29.4 µM | LOX IMVI 18.3 µM | SN12C 22.1 µM | SK-MEL-2 17.3 µM | HOP-62 12.7 µM

Brc1cc(C2OCCCO2)ccc1OCc1ccccc1
inactive: SK-MEL-28 > 100 µM | OVCAR-3 74.1 µM | HL-60 25.2 µM | IGROV-1 > 100 µM | HOP-92 33.6 µM | M14 33.5 µM | NCI-H23 45.6 µM | NCI-H460 50.9 µM | SF-268 76.4 µM | A498 > 100 µM | CCRF-CEM 41.2 µM | HCC 2998 30.3 µM | LOX IMVI 25.8 µM | SN12C > 100 µM | SK-MEL-2 81.7 µM | HOP-62 43.9 µM | SK-MEL-5 27.2 µM

O=C(/C=C/c1c(O)ccc2ccccc12)c1ccccc1Cl
inactive: SK-MEL-28 23 µM | OVCAR-3 26.1 µM | HL-60 11.1 µM | IGROV-1 55.5 µM | HOP-92 23.2 µM | M14 18.5 µM | NCI-H23 19.8 µM | NCI-H460 30.6 µM | SF-268 29.3 µM | A498 82 µM | CCRF-CEM 17.3 µM | HCC 2998 > 100 µM | LOX IMVI 24.2 µM | SN12C 26.7 µM | SK-MEL-2 27.7 µM | HOP-62 76.6 µM | SK-MEL-5 18.2 µM

CCCCCCCCC(=O)NCCCNCCCNC(=O)CCCCCCCC
inactive: SK-MEL-28 12.3 µM | OVCAR-3 15.5 µM | HL-60 2.11 µM | IGROV-1 4.35 µM | HOP-92 3.85 µM | M14 2.07 µM | NCI-H23 15.7 µM | NCI-H460 2.54 µM | SF-268 10.2 µM | A498 16.9 µM | CCRF-CEM 3.28 µM | HCC 2998 2.84 µM | LOX IMVI 1.77 µM | SN12C 6.19 µM | SK-MEL-2 3.25 µM | HOP-62 13.8 µM | SK-MEL-5 3.82 µM

O=C1C2CC=CCC2C(=O)C12CCc1ccccc12 (stereo unspecified)
inactive: SK-MEL-28 > 100 µM | OVCAR-3 > 100 µM | HL-60 74.6 µM | IGROV-1 > 100 µM | HOP-92 > 100 µM | M14 > 100 µM | NCI-H23 > 100 µM | NCI-H460 > 100 µM | SF-268 > 100 µM | CCRF-CEM > 100 µM | HCC 2998 > 100 µM | LOX IMVI > 100 µM | SN12C > 100 µM | HOP-62 > 100 µM

Cn1cnc([N+](=O)[O-])c1Sc1n[nH]c(-c2ccc(Cl)cc2)n1
inactive: SK-MEL-28 15.3 µM | OVCAR-3 18.1 µM | IGROV-1 20 µM | HOP-92 14.5 µM | M14 15 µM | NCI-H23 18.6 µM | NCI-H460 20.8 µM | SF-268 22 µM | A498 22.4 µM | CCRF-CEM 11.8 µM | HCC 2998 21.3 µM | LOX IMVI 15 µM | SN12C 15.5 µM | SK-MEL-2 13.6 µM | HOP-62 21.5 µM | SK-MEL-5 15.7 µM

OCC1OC2c3ccccc3COC2C1OCc1ccccc1 (stereo unspecified)
inactive: SK-MEL-28 > 100 µM | OVCAR-3 > 100 µM | IGROV-1 > 100 µM | M14 > 100 µM | NCI-H23 91.6 µM | NCI-H460 > 100 µM | HCC 2998 > 100 µM | SN12C > 100 µM | SK-MEL-2 > 100 µM | SK-MEL-5 38.1 µM

COc1ccc(C(Cl)=C(c2ccc(OCCN(C)C)cc2)c2ccc(OCCN(C)C)cc2)cc1
inactive: SK-MEL-28 1.63 µM | OVCAR-3 2.09 µM | HL-60 1.83 µM | IGROV-1 3.03 µM | HOP-92 2.16 µM | M14 1.5 µM | NCI-H23 1.73 µM | NCI-H460 1.82 µM | SF-268 1.84 µM | CCRF-CEM 1.16 µM | HCC 2998 2.26 µM | SN12C 2.65 µM | SK-MEL-2 1.68 µM | HOP-62 3.14 µM | SK-MEL-5 1.73 µM

Cc1nc2nnnn2c2c1C(=O)Nc1ccccc1N2
inactive: SK-MEL-28 > 100 µM | OVCAR-3 > 100 µM | HL-60 > 100 µM | IGROV-1 > 100 µM | HOP-92 > 100 µM | M14 > 100 µM | NCI-H23 > 100 µM | NCI-H460 28.4 µM | SF-268 > 100 µM | CCRF-CEM > 100 µM | HCC 2998 > 100 µM | LOX IMVI > 100 µM | SN12C > 100 µM | SK-MEL-2 > 100 µM | HOP-62 71.9 µM

COc1ccc(CNc2cnc3ccc(N)cc3n2)cc1
inactive: SK-MEL-28 3.84 µM | OVCAR-3 > 100 µM | HL-60 > 100 µM | M14 > 100 µM | NCI-H23 > 100 µM | NCI-H460 > 100 µM | SF-268 > 100 µM | CCRF-CEM 49.2 µM | HCC 2998 > 100 µM | LOX IMVI > 100 µM | SN12C > 100 µM | SK-MEL-2 > 100 µM | HOP-62 > 100 µM | SK-MEL-5 35.3 µM

NC1(CCCCCCCCCCC(=O)O)CNCCNCCNCCNC1
inactive: SK-MEL-28 > 100 µM | OVCAR-3 59 µM | HL-60 15.9 µM | IGROV-1 26.9 µM | M14 75.3 µM | NCI-H23 > 100 µM | NCI-H460 26.6 µM | SF-268 > 100 µM | A498 13.7 µM | CCRF-CEM 22.6 µM | HCC 2998 15.2 µM | SN12C 23.8 µM | SK-MEL-2 52.5 µM | HOP-62 23.1 µM | SK-MEL-5 38.9 µM

O=C(Cc1nc2ccccc2s1)NC12CC3CC(CC(C3)C1)C2
inactive: SK-MEL-28 > 100 µM | HL-60 > 100 µM | HOP-92 > 100 µM | M14 > 100 µM | NCI-H23 > 100 µM | NCI-H460 > 100 µM | SF-268 > 100 µM | A498 > 100 µM | CCRF-CEM > 100 µM | HCC 2998 > 100 µM | LOX IMVI > 100 µM | SN12C > 100 µM | SK-MEL-2 > 100 µM | HOP-62 > 100 µM

Cc1ccc(C)c(NC(=O)CC/C(=N\NC(=O)c2c(O)ccc3ccccc23)C(C)C(=O)c2ccc(O)cc2)c1 (stereo unspecified)
inactive: SK-MEL-28 49 µM | OVCAR-3 23.3 µM | HL-60 5.26 µM | IGROV-1 52 µM | HOP-92 46.3 µM | M14 16.9 µM | NCI-H23 31.1 µM | NCI-H460 21.7 µM | SF-268 17.9 µM | A498 60.8 µM | CCRF-CEM 15.2 µM | HCC 2998 44.6 µM | LOX IMVI 18.7 µM | SN12C 38.6 µM | SK-MEL-2 24.7 µM | HOP-62 49.5 µM | SK-MEL-5 41.3 µM

COc1ccc2c(c1)C(=O)N1CCOC1C2C(=O)O (stereo unspecified)
inactive: SK-MEL-28 > 100 µM | OVCAR-3 > 100 µM | HL-60 > 100 µM | IGROV-1 > 100 µM | HOP-92 > 100 µM | M14 > 100 µM | NCI-H23 > 100 µM | NCI-H460 > 100 µM | SF-268 > 100 µM | A498 > 100 µM | CCRF-CEM > 100 µM | HCC 2998 > 100 µM | LOX IMVI > 100 µM | SN12C > 100 µM | HOP-62 > 100 µM | SK-MEL-5 > 100 µM

COc1cc(C[P+](c2ccccc2)(c2ccccc2)c2ccccc2)cc(OC)c1OC
inactive: SK-MEL-28 > 100 µM | OVCAR-3 > 100 µM | HL-60 > 100 µM | IGROV-1 > 100 µM | HOP-92 > 100 µM | M14 > 100 µM | NCI-H23 > 100 µM | NCI-H460 > 100 µM | SF-268 > 100 µM | CCRF-CEM > 100 µM | HCC 2998 > 100 µM | LOX IMVI > 100 µM | SN12C > 100 µM | SK-MEL-2 > 100 µM | HOP-62 > 100 µM | SK-MEL-5 > 100 µM

CCOC(=O)NC(=O)c1cn(CCN2CCN(C(=O)CNC(=O)CNC(=O)Cn3cc(C(=O)NC(=O)OCC)c(=O)[nH]c3=O)CC2)c(=O)[nH]c1=O
inactive: SK-MEL-28 > 100 µM | OVCAR-3 > 100 µM | HL-60 > 100 µM | HOP-92 > 100 µM | M14 > 100 µM | NCI-H23 > 100 µM | NCI-H460 > 100 µM | SF-268 > 100 µM | A498 > 100 µM | CCRF-CEM > 100 µM | HCC 2998 > 100 µM | LOX IMVI > 100 µM | SN12C > 100 µM | SK-MEL-2 > 100 µM | HOP-62 > 100 µM

Cn1c(=O)c2c(nc3n2CCC(=O)N3)n(C)c1=O
inactive: SK-MEL-28 > 100 µM | HL-60 > 100 µM | IGROV-1 > 100 µM | HOP-92 > 100 µM | NCI-H23 > 100 µM | NCI-H460 > 100 µM | SF-268 > 100 µM | A498 > 100 µM | CCRF-CEM > 100 µM | LOX IMVI > 100 µM | SN12C > 100 µM | SK-MEL-2 > 100 µM | HOP-62 > 100 µM | SK-MEL-5 > 100 µM

CCCCCCCCCCCCSC(=S)c1c(C)[nH]n(-c2ccccc2)c1=O
inactive: SK-MEL-28 7.36 µM | OVCAR-3 13.3 µM | HL-60 8.59 µM | IGROV-1 14.6 µM | HOP-92 25.8 µM | M14 13.4 µM | NCI-H23 13.3 µM | SF-268 12.6 µM | A498 26.7 µM | CCRF-CEM 2.9 µM | HCC 2998 5.36 µM | LOX IMVI 15.9 µM | SN12C 8.28 µM | HOP-62 5.16 µM | SK-MEL-5 5.58 µM
